Source: patent US5591758A, “Organic nitrates, processes for their preparation and their use in the treatment of cardiovascular diseases” (Laboratoires Hoechst, SA, priority 1991, dated 1997)
Where a name gives a salt, the structure may show the parent alone.

How the values were obtained:
anesthetised pigs = test: Haemodynamic effects on anesthetised pigs; format: in vivo, pigs ("German land" race)
Experimental: Haemodynamic effects of the compounds according to the invention on anesthetised pigs or dogs
Pigs are of "German land" race (20-26 kg) and are used after fasting overnight.
In the case of pigs, sedation, analgesia and anesthesia are induced by ketamine HCl (20 mg/kg i.m.), methonidate HCl (10 mg/kg i.m.), xylacine HCl (3 mg/kg i.m.) and sodium pentobarbitol (25-30 mg/kg as bolus i.v. or 0.16 mg/kg/min as i.v. perfusion).
The pigs or dogs are placed under artificial respiration in ambient air. Analysis of the blood gases (pO2, pCO2) is carried out at regular intervals and oxygen can be supplied via the respirator, if necessary.
The haemodynamic parameters recorded include the left ventricular pressure (LVP; Millar PC350 Tip catheter inserted via the carotid artery), systemic blood pressure (BPs, BPd; full catheter in a femoral artery), the end pressure of the left ventricular diastole (LVEDP), the ventricular contractility (LVPdp/dtmax) and the heart rate (HR).
The haemodynamic variables are recorded continuously for 1 to 3 hours, as a function of the period of action of the compound.
The effects of the compounds studied are shown as the absolute difference with respect to the base value (bv) measured before administration of the compounds and are shown in Table VII (a,b,c).
An antianginal activity is estimated by a fall in the BPs and the LVEDP (fall in venous return).

[1] = test system: isolated pulmonary vessel; test: Relaxant activity on blood vessels isolated from guinea pigs (pulmonary artery); conditions: Cavia porcellus; guinea pig pulmonary artery, K+ depolarised, Ca2+ contraction; read-out: IC50 (relaxation of 50%)
Experimental: Determination of the relaxant activity of the compounds according to the invention on blood vessels isolated from guinea pigs.
The pulmonary artery of male guinea pigs (350-500 g) is isolated and cut into spiral tracts (1 mm wide, 15 mm long). […] After having removed the calcium from the tissues (Tyrode without calcium and 0.2 mM EDTA), the tracts are depolarised in the presence of a concentrated solution of K^+ ions (40 mM), which is produced by replacing the NaCl by equimolar amounts of KCl, and a contraction of long duration is then induced by Ca^2+ ions (0.5 mM).
The compounds studied are then introduced into the organ cell in increasing concentrations.
Each compound is tested on at least four vessel spiral tracts.

thoracic aorta = test: Vasorelaxant effect on isolated vessels (rat thoracic aorta rings without endothelium, precontracted with noradrenalin); set-up: species or system Wistar rats; conditions: for Emax: Rattus norvegicus, maximum inhibition of noradrenalin effect, 10^-8 to 10^-4 M substance, read-out: Maximum Relaxation; for IC50: rat aorta, 10^-7 M noradrenalin contraction
Procedure, shortened: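 Endothelium-denuded thoracic aorta rings from Wistar rats, held in Krebs-Ringer buffer (pH 7.4, 37 °C, 95% O2/5% CO2) under isometric tension and precontracted with 10^-7 M noradrenalin, received cumulative compound (10^-8 to 10^-4 M). Maximum relaxation given as percent; IC50 calculated when relaxation exceeded 50%.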

Structure (SMILES): O=C(CNC(=O)OCc1ccccc1)N[C@H]1CO[C@H]2[C@@H]1OC[C@@H]2O[N+](=O)[O-] [Compound 4, N-[(Benzyloxy)carbonyl]glycine amide of 5-amino-5-deoxy-2-O-nitro-1,4:3,6-dianhydro-L-iditol]
- BPs (min), period of action (anesthetised pigs; pigs, 3,0 mg/kg i.d.): > 120 min
- BPs, difference to base value (anesthetised pigs; pigs, 3,0 mg/kg i.d.): -28 mmHg
- LVRDP (min), period of action (anesthetised pigs; pigs, 3,0 mg/kg i.d.): > 120 min
- LVRDP, difference to base value (anesthetised pigs; pigs, 3,0 mg/kg i.d.): -2,0 mmHg
- IC50 [1]: 6 µM
- Emax (thoracic aorta): 75%
- IC50 (thoracic aorta): 20 µM

Structure (SMILES): CC(C)(C)OC(=O)NCC(=O)N[C@H]1CO[C@H]2[C@@H]1OC[C@@H]2O[N+](=O)[O-] [Compound 5, N-[(t-Butoxy)carbonyl]glycine amide of 5-amino-5-deoxy-2-O-nitro-1,4:3,6-dianhydro-L-iditol]
- BPs (min), period of action (anesthetised pigs; pigs, 1,0 mg/kg i.d.): > 120 min
- BPs, difference to base value (anesthetised pigs; pigs, 1,0 mg/kg i.d.): -24 mmHg
- LVRDP (min), period of action (anesthetised pigs; pigs, 1,0 mg/kg i.d.): > 120 min
- LVRDP, difference to base value (anesthetised pigs; pigs, 1,0 mg/kg i.d.): -4,0 mmHg
- IC50 [1]: 14 µM
- Emax (thoracic aorta): 70%
- IC50 (thoracic aorta): 25 µM

Structure (SMILES): NCC(=O)N[C@H]1CO[C@H]2[C@@H]1OC[C@@H]2O[N+](=O)[O-] [Compound 6, Glycine amide of 5-amino-5-deoxy-2-O-nitro-1,4:3,6-dianhydro-L-iditol monohydrochloride]
- BPs (min), period of action (anesthetised pigs; pigs, 1,0 mg/kg i.d.): > 180 min
- BPs, difference to base value (anesthetised pigs; pigs, 1,0 mg/kg i.d.): -31 mmHg
- LVRDP (min), period of action (anesthetised pigs; pigs, 1,0 mg/kg i.d.): > 180 min
- LVRDP, difference to base value (anesthetised pigs; pigs, 1,0 mg/kg i.d.): -4,0 mmHg
- IC50 [1]: 30 µM
- Emax (thoracic aorta): 45%
- IC50 (thoracic aorta): > 100 µM

Structure (SMILES): CC(=O)NCSC[C@H](NC(=O)OC(C)(C)C)C(=O)O[C@H]1CO[C@H]2[C@@H]1OC[C@H]2O[N+](=O)[O-] [Compound 20, S-[(Acetylamino)methyl]-N-[(t-butoxy)carbonyl]-L-cysteine ester of 5-O-nitro-1,4:3,6-dianhydro-D-glucitol]
- BPs (min), period of action (anesthetised pigs; pigs, 10 mg/kg i.v.): 5 min
- BPs, difference to base value (anesthetised pigs; pigs, 10 mg/kg i.v.): -20 mmHg
- LVRDP (min), period of action (anesthetised pigs; pigs, 10 mg/kg i.v.): 5 min
- LVRDP, difference to base value (anesthetised pigs; pigs, 10 mg/kg i.v.): -4,0 mmHg
- Emax (thoracic aorta): 85%
- IC50 (thoracic aorta): 28 µM

Structure (SMILES): O=C(O[C@H]1CO[C@H]2[C@@H]1OC[C@H]2O[N+](=O)[O-])c1ccccc1SCc1ccccc1 [Compound 22, 2-O-[2-[(Phenylmethyl)thio]benzoyl]-5-O-nitro-1,4:3,6-dianhydro-D-glucitol]
- BPs (min), period of action (anesthetised pigs; pigs, 10 mg/kg i.v.): 5 min
- BPs, difference to base value (anesthetised pigs; pigs, 10 mg/kg i.v.): -73 mmHg
- LVRDP (min), period of action (anesthetised pigs; pigs, 10 mg/kg i.v.): 5 min
- LVRDP, difference to base value (anesthetised pigs; pigs, 10 mg/kg i.v.): -2,0 mmHg
- IC50 [1]: 3 µM
- Emax (thoracic aorta): 100%
- IC50 (thoracic aorta): 10 µM

Structure (SMILES): CC(=O)NCSc1ccccc1C(=O)O[C@H]1CO[C@H]2[C@@H]1OC[C@H]2O[N+](=O)[O-] [Compound 23]
- BPs, difference to base value (anesthetised pigs; pigs, 10,0 mg/kg i.d.): 0 mmHg
- LVRDP, difference to base value (anesthetised pigs; pigs, 10,0 mg/kg i.d.): 0 mmHg

Structure (SMILES): O=C(O[C@@H]1CO[C@H]2[C@@H]1OC[C@@H]2O[N+](=O)[O-])c1ccccc1SCc1ccccc1 [Compound 28, 5-O-[2-[(Phenylmethyl)thio]benzoyl]-2-O-nitro-1,4:3,6-dianhydro-D-glucitol]
- BPs (min), period of action (anesthetised pigs; pigs, 3,0 mg/kg i.d.): > 180 min
- BPs, difference to base value (anesthetised pigs; pigs, 3,0 mg/kg i.d.): -28 mmHg
- LVRDP (min), period of action (anesthetised pigs; pigs, 3,0 mg/kg i.d.): > 180 min
- LVRDP, difference to base value (anesthetised pigs; pigs, 3,0 mg/kg i.d.): -6,0 mmHg
- IC50 [1]: 2 µM
- Emax (thoracic aorta): 70%
- IC50 (thoracic aorta): 50 µM

Structure (SMILES): O=C(O[C@@H]1CO[C@H]2[C@@H]1OC[C@@H]2O[N+](=O)[O-])c1ccccc1SSc1ccccc1C(=O)O[C@@H]1CO[C@H]2[C@@H]1OC[C@@H]2O[N+](=O)[O-] [Compound 29, Bis[5-O-[(2-thio)benzoyl]-2-O-nitro-1,4:3,6-dianhydro-D-glucitol]]
- BPs (min), period of action (anesthetised pigs; pigs, 3 mg/kg i.v.): 10 min
- BPs, difference to base value (anesthetised pigs; pigs, 3 mg/kg i.v.): -42 mmHg
- LVRDP (min), period of action (anesthetised pigs; pigs, 3 mg/kg i.v.): 16 min
- LVRDP, difference to base value (anesthetised pigs; pigs, 3 mg/kg i.v.): -2,0 mmHg
